These results are taken from US20260083865A1, “PROSTATE SPECIFIC MEMBRANE ANTIGEN (PSMA) LIGANDS AND USE THEREOF” (priority 2022, published 2026).

Numbered stars: 1 amine (or outer) side, 2 acyl side, 3 side chain; on linkers, the order of the positions; unused ones are H or OH. Bridge positions count the residues as written; N and C are the ends. Square brackets hold non-standard residues; d marks the D form. Peptide text beside a SMILES is read from it. * marks the point of attachment. TtdsdLys(DOTA)NH2 = NC(=O)[C@@H](CCCCNC(=O)CN1CCN(CC(=O)O)CCN(CC(=O)O)CCN(CC(=O)O)CC1)NC(=O)CCC(=O)NCCCOCCOCCOCCCN*; DO3AM = NC(=O)CN1CCN(CC(N)=O)CCN(CC(=O)*)CCN(CC(N)=O)CC1; DOTA = O=C(O)CN1CCN(CC(=O)O)CCN(CC(=O)*)CCN(CC(=O)O)CC1; X10 = NC(=O)CN1CCN(CC(=O)O)CCN(CC(=O)*)CCN(CC(=O)O)CC1; Phe(4-Cl) = N[C@@H](Cc1ccc(Cl)cc1)C(=O)O; Arg(Me) = CNC(=N)NCCC[C@H](N)C(=O)O; Ethylenediamine = C(CN[*:2])N[*:1]; X1 = O=C(CC1CCN([*:1])CC1)[*:2]; Lys(Me) = CNCCCC[C@H](N)C(=O)O; Tle = CC(C)(C)[C@H](N)C(=O)O; Aib = CC(C)(N)C(=O)O; βAla = NCCC(=O)O

Experiment [1] addresses T1, Fc-fusion protein of human PSMA (hPSMA-Fc) (Homo sapiens, UniProt Q04609).
T1 construct: purchased Acro Biosystems PSA-H5264
Kind of experiment: Surface plasmon resonance assay (Biacore T200, single cycle kinetic). The class given is binding. As to conditions: for Kd: read-out: pKD CAT (converted). In short, it runs like this: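 KD, expressed as pKD, came from 1:1 Langmuir fits of reference- and buffer-blank-subtracted SPR data. The runs were single-cycle kinetics at 25° C in HBST/0.1% DMSO over human PSMA-Fc, captured to ~1000 RU on a peptide-coated CM5 surface and regenerated with 10 mM glycine pH 1.5.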
For orientation: Surface plasmon resonance follows binding to a sensor surface in real time, without labels.

The target of experiment [2] is T2, PSMA-expressing C4-2 cells (Homo sapiens, UniProt Q04609).
T2 construct: PSMA-expressing C4-2 cells (ATCC, Cat. No. CRL-3314) were cultured in RPMI-1640; host or cells: C4-2 cells
T2 sequence (Q04609 whole entry): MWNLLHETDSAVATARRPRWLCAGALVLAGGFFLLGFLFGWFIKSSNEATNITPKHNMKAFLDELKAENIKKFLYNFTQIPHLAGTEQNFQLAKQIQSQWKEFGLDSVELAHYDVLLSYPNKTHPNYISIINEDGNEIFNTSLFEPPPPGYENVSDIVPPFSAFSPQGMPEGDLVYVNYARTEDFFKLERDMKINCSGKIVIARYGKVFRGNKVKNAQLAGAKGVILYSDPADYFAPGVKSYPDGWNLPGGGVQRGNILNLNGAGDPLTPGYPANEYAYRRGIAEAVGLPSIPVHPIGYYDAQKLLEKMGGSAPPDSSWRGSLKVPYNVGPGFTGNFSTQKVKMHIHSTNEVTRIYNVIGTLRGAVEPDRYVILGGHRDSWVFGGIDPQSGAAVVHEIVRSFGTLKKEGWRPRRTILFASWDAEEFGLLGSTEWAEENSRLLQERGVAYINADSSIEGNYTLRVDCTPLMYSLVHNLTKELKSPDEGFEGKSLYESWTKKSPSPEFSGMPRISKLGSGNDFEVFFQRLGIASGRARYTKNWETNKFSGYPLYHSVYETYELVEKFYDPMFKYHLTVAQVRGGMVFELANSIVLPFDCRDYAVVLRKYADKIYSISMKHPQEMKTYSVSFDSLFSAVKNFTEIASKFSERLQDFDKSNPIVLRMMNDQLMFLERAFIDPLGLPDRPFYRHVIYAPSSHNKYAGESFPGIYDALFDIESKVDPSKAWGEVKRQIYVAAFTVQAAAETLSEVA
Kind of experiment: FACS binding assay (competition with 50 nM PSM-0183). As to conditions: for IC50: read-out: pIC50 [C4-2] CAT (converted). Summed up: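 Competition format: fluorescent tracer PSM-0183 (50 nM) displaced from PSMA on C4-2 cells by a test compound titration over 1 h at 4 °C. Bound tracer was quantified as flow-cytometric AF488 median fluorescence after washing. Four-parameter logistic fits of MFI data gave IC50 and pIC50.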
In general terms: A flow cytometer gives signals particle by particle.

The mark [3] stands for this setting: FACS binding, C4-2 cells, category.
Setting [4] is: pKD category for PSMA SPR activity assay, hPSMA-Fc, 25° C.
Setting [5] is: pIC50 category of FACS binding, C4-2 cells.
Where [6] appears, read: SPR, hPSMA-Fc, single cycle kinetic, 25° C., category.
[7] abbreviates: FACS binding, C4-2 cells, competition with 50 nM PSM-0183, category.

T1 sequence (Q04609 44-750 limits assumed): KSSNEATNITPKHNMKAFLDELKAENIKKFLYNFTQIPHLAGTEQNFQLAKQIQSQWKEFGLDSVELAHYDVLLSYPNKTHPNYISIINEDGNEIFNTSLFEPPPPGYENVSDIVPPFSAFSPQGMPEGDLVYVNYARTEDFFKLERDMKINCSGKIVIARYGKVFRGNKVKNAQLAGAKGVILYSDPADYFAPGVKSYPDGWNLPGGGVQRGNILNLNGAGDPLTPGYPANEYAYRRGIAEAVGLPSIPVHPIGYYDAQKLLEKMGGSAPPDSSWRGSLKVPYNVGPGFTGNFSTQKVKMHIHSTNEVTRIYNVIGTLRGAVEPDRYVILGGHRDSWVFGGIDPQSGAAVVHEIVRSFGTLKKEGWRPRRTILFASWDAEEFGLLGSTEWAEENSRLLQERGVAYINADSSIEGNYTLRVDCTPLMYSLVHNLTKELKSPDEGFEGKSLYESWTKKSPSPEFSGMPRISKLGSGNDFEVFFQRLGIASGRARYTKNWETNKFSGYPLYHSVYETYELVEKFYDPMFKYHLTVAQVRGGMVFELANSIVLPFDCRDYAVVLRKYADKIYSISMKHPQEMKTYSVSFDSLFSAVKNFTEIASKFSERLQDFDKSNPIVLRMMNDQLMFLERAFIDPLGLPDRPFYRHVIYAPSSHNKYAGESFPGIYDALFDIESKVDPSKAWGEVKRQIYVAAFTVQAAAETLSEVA

As for `CC(=O)N[C@H]1CSSC[C@@H](C(=O)N[C@@H](CC(C)C)C(=O)N[C@H](C(=O)N[C@@H](CC(=O)O)C(=O)NCCCOCCOCCOCCCNC(=O)CCC(=O)N[C@H](CCCCNC(=O)CN2CCN(CC(=O)O)CCN(CC(=O)O)CCN(CC(=O)O)CC2)C(N)=O)[C@@H](C)O)NC(=O)[C@H](CC(N)=O)NC(=O)[C@H](C)NC(=O)[C@H](CCCNC(=N)N)NC(=O)[C@H](CCCCN)NC1=O` [PSM-0591, Ac-[Cys-Lys-Arg-Ala-Asn-Cys]-Leu-Thr-Asp-Ttds-lys(DOTA)-NH2] (Ac-CKRANCLTD-{TtdsdLys(DOTA)NH2}; disulfide 1-6), the Kd in experiment [1] (PSMA SPR assay, category) was > 501 nM. In addition, the IC50 in experiment [2] (setting [3]) is > 3160 nM.

Regarding `CNCCCC[C@@H]1NC(=O)[C@@H](NC(=O)[C@H](Cc2ccc(Cl)cc2)NC(=O)C(C)(C)NC(=O)[C@@H](NC(=O)CC2CCN(C(=O)CN3CCN(CC(N)=O)CCN(CC(N)=O)CCN(CC(N)=O)CC3)CC2)[C@@H](C)O)CSSC[C@@H](C(=O)N[C@H](C(=O)N[C@H](C(N)=O)[C@@H](C)O)C(C)(C)C)NC(=O)[C@H](CC(N)=O)NC(=O)C(C)(C)NC(=O)[C@H](CCCNC(=N)NC)NC1=O` [PSM-0593, DOTAM-Cmp-Thr-Aib-Pcf-[Cys-Lys(Me)-Arg(Me)-Aib-Asn-Cys]-Tle-Thr-NH2] (DO3AM-[X1]T[Aib][Phe(4-Cl)]C[Lys(Me)][Arg(Me)][Aib]NC[Tle]T-NH2; disulfide 5-10), the Kd in experiment [1] (PSMA SPR assay, category) was < 12.6 nM. The IC50 in experiment [2] (setting [3]) was < 200 nM.

On to `CNCCCC[C@@H]1NC(=O)[C@@H](NC(=O)[C@H](Cc2ccc(Cl)cc2)NC(=O)C(C)(C)NC(=O)[C@@H](NC(=O)CC2CCN(C(=O)CN3CCN(CC(=O)O)CCN(CC(=O)O)CCN(CC(=O)O)CC3)CC2)[C@@H](C)O)CSSC[C@@H](C(=O)O)NC(=O)[C@H](CC(N)=O)NC(=O)C(C)(C)NC(=O)[C@H](CCCNC(=N)NC)NC1=O` [PSM-0594, DOTA-Cmp-Thr-Aib-Pcf-[Cys-Lys(Me)-Arg(Me)-Aib-Asn-Cys]-OH] ({DOTA}-[X1]T[Aib][Phe(4-Cl)]C[Lys(Me)][Arg(Me)][Aib]NC-OH; disulfide 5-10), for which the Kd in experiment [1] (PSMA SPR assay, category) was > 501 nM. Also, in experiment [2] (setting [3]), the IC50 is 1260 to 3160 nM.

With `CNCCCC[C@@H]1NC(=O)[C@@H](NC(=O)[C@H](Cc2ccc(Cl)cc2)NC(=O)C(C)(C)NC(=O)[C@@H](NC(=O)CC2CCN(C(=O)CN3CCN(CC(=O)O)CCN(CC(N)=O)CCN(CC(=O)O)CC3)CC2)[C@@H](C)O)CSSC[C@@H](C(=O)N[C@H](C(=O)N[C@H](C(N)=O)[C@@H](C)O)C(C)(C)C)NC(=O)[C@H](CC(N)=O)NC(=O)C(C)(C)NC(=O)[C@H](CCCNC(=N)NC)NC1=O` [PSM-0601, LSC-Cmp-Thr-Aib-Pcf-[Cys-Lys(Me)-Arg(Me)-Aib-Aan-Cys]-Tle-Thr-NH] (X10-[X1]T[Aib][Phe(4-Cl)]C[Lys(Me)][Arg(Me)][Aib]NC[Tle]T-NH2; disulfide 5-10), the Kd in experiment [1] (PSMA SPR assay, category) was < 12.6 nM. In addition, the IC50 in experiment [2] (setting [3]) was < 200 nM.

Turning to `CNCCCC[C@@H]1NC(=O)[C@@H](NC(=O)[C@H](Cc2ccccc2)NC(=O)C(C)(C)NC(=O)[C@@H](NC(=O)CC2CCN(C(=O)CN3CCN(CC(=O)O)CCN(CC(=O)O)CCN(CC(=O)O)CC3)CC2)[C@@H](C)O)CSSC[C@@H](C(=O)N[C@H](C(=O)NCCN)C(C)(C)C)NC(=O)[C@H](CC(N)=O)NC(=O)C(C)(C)NC(=O)[C@H](CCCNC(=N)NC)NC1=O` [PSM-605] ({DOTA}-[X1]T[Aib]FC[Lys(Me)][Arg(Me)][Aib]NC[Tle]-Ethylenediamine; disulfide 5-10), in experiment [1] (PSMA SPR assay, category), the Kd was < 12.6 nM. The IC50 in experiment [2] (setting [3]) was < 200 nM.

Regarding `CNCCCC[C@@H]1NC(=O)[C@@H](NC(=O)[C@H](Cc2ccc(Cl)cc2)NC(=O)C(C)(C)NC(=O)[C@@H](NC(=O)CC2CCN(C(=O)CN3CCN(CC(=O)O)CCN(CC(=O)O)CCN(CC(=O)O)CC3)CC2)[C@@H](C)O)CSSC[C@@H](C(=O)N[C@H](C(=O)NCCC(N)=O)C(C)(C)C)NC(=O)[C@H](CC(N)=O)NC(=O)C(C)(C)NC(=O)[C@H](CCCNC(=N)NC)NC1=O` [PSM-606] ({DOTA}-[X1]T[Aib][Phe(4-Cl)]C[Lys(Me)][Arg(Me)][Aib]NC[Tle][βAla]-NH2; disulfide 5-10), the Kd in experiment [1] (PSMA SPR assay, category) is < 12.6 nM. Moreover, the IC50 in experiment [2] (setting [3]) is < 200 nM.

With “Ac-Thr-Aib-Phe-[Cys-Lys-Arg-Aib-Asn-Cys]-Tle-Thr-Cmp-lys (InDOTA)-NH2 [PSM-0440]”, the “pKD CAT” value in experiment [1] (setting [4]) is “A (pKD values >7.9)”. Also, the “pIC50 [C4-2] CAT” value in experiment [2] (setting [5]) is recorded as “A (pIC50 values >6.7)”.

Regarding “Ac-Thr-Aib-Phe-[Cys-Lys-Arg-Aib-Asn-Cys]-Tle-Thr-Cmp-lys (LuDOTA)-NH2 [PSM-0347]”, the “pKD CAT” value in experiment [1] (PSMA SPR assay, hPSMA-Fc, 25° C., pKD category) was “A (pKD values >7.9)”. Further, the “pIC50 [C4-2] CAT” value in experiment [2] (FACS binding, PSMA-expressing C4-2 cells, pIC50 category) was “A (pIC50 values >6.7)”.

Consider “InDOTA-Cmp-Thr-Aib-Pcf-[Cys-Lys(Me)-Arg(Me)-Aib-Asn-Cys]-Tle-NH2 [PSM-0519]”, for which the “pKD CAT” value in experiment [1] (setting [4]) was “A (pKD values >7.9)”. In experiment [2] (setting [5]), the “pIC50 [C4-2] CAT” value was “A (pIC50 values >6.7)”.

“InDOTA-Cmp-Thr-Aib-Phe-[Cys-Lys-Arg-Aib-Asn-Cys]-Tle-Thr-NH2 [PSM-0195]”: in experiment [1] (setting [6]), the “pKD CAT” value was “A (pKD values >7.9)”. Further, the “pIC50 [C4-2] CAT” value in experiment [2] (setting [7]) was “A (pIC50 values >6.7)”.

“InLSC-Cmp-Thr-Aib-Pcf-[Cys-Lys(Me)-Arg(Me)-Aib-Asn-Cys]-Tle-Thr-NH2 [PSM-0604]”: the “pKD CAT” value in experiment [1] (PSMA SPR assay, category) is listed as “A (pKD values >7.9)”. Moreover, the “pIC50 [C4-2] CAT” value in experiment [2] (setting [3]) was “A (pIC50 values >6.7)”.

For “nBuCAyl-Thr-Aib-Phe-[Cys-Lys-Arg-Aib-Asn-Cys]-Tle-Thr-Cmp-lys(InDOTA)-NH2 [PSM-0214]”, the “pKD CAT” value in experiment [1] (setting [6]) is recorded as “A (pKD values >7.9)”. Besides, in experiment [2] (setting [7]), the “pIC50 [C4-2] CAT” value is on record as “A (pIC50 values >6.7)”.
